Measured values: patent US10525058B2, “Urea derivative or pharmacologically acceptable salt thereof” (KYORIN PHARMACEUTICAL CO., LTD., priority 2015, dated 2020)

Assays:
[1] = tested on: neutrophilic infiltration in mouse lung; assay: Effect on lipopolysaccharide-induced neutrophilic infiltration in mouse lung (BAL fluid neutrophil count); assay type: in vivo; details: oral, BALB/c male mouse, 30 min before LPS aerosol, BAL neutrophil count after 5 hours relative to control
Protocol: Effect of lipopolysaccharide induction on neutrophilic infiltration in mouse lung A compound to be tested was orally administrated to a mouse (BALB/c, male), and after 30 minutes, the mouse was placed in a plastic container. Lipopolysaccharide (0.3 mg/mL) dissolved in physiological saline was aerosolized with an ultrasonic wave nebulizer (NE-U17, OMRON Corporation), and exposed to the mouse for 10 minutes. After 5 hours, the anesthetized mouse was sacrificed by exsanguination. […] This operation was repeated 3 times, to obtain a BAL fluid. The BAL fluid was centrifuged at 4° C. and ×200 g for 5 minutes, and the pellet was suspended in a physiological saline containing 0.1% BSA. The number of white blood cells was counted using Turks solution with a microscope, and the total white blood cell count was calculated. The white blood cells were fixed on a glass slide using Cytospin 3 (Thermo BioAnalysis Japan K. K.). The cells were stained with Diff-Quik (SYSMEX INTERNATIONAL REAGENTS CO., LTD.), and the number thereof was counted with a microscope, and the neutrophil ratio was calculated. The neutrophil ratio was multiplied by the total white blood cell count to calculate the total neutrophil count. An effect of the compound to be tested represents a percentage (%) of suppression ratio relative to the neutrophil count in a control.

human FPRL1 = biological target: T1, human FPRL1 (Homo sapiens, UniProt P25090); assay: Measurement test of agonist activity on human FPRL1 (calcium mobilization in HEK293 cells transfected with human FPRL1 and Gα15); assay type: cell-based; details: Fluo-4 NW, molar concentration giving 50% maximum activation, read-out: Efficacy EC50
T1 construct: expressed in transfected cells; host or cells: HEK293 (JCRB9068, NIBIO), transient co-transfection with pCMV-script vectors
T1 sequence (P25090 1-351): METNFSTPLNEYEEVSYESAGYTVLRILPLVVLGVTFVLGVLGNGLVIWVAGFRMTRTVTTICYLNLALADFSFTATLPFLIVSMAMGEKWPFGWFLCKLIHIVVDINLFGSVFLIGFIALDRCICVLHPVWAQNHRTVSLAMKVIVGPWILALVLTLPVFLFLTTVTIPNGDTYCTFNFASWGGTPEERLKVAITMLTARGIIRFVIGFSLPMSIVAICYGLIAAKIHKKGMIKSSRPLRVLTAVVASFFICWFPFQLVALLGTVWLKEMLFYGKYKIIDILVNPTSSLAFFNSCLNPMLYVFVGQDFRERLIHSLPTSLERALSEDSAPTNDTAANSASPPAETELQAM
Excerpt: Measurement test of agonist activity on human FPRL1
(1-1) Construction of Human FPRL1 Expression Vector
Human FPRL (SEQ ID NO: 3) was amplified in a PCR reaction from cDNA derived from a monocytic leukemia cell line THP-1 (TIB-202, ATCC) as a template using a forward primer shown in SEQ ID NO: 1, a reverse primer shown in SEQ ID NO: 2, and KOD-plus-ver. 2 (KOD-211, TOYOBO CO., LTD.). […] 2 (LGK-201, TOYOBO CO., LTD.). The ligation product was transformed into DH5α (DNA-901, TOYOBO CO., LTD.), cultured on a 100 μg/mL kanamycin-containing LB medium, and purified with HiSpeed Plasmid Maxi Kit (12662, QIAGEN).
(1-2) Construction of Human Gα15 Expression Vector
2. The amplified PCR product and pCMV-script vector were digested with Hind III and XhoI, and the resultant digest was ligated with Ligation high ver. 2. The ligation product was transformed into DH5α, cultured on a 100 μg/mL kanamycin-containing LB medium, and purified with HiSpeed Plasmid Maxi Kit.
(2-1) Method for Culturing and Subculturing HEK293
HEK293 (JCRB9068, NIBIO) was cultured in an incubator at 5% CO2 and 37° C. using DMEM (11885-092, GIBCO) containing 10% FBS and 1cPenicillin-Streptomycin (15140-122, GIBCO).
(2-2) Introduction of Human FPRL1 and Gal5 Expression Vectors
The cells were inoculated in a Collagen Type 1 coated 6-well plate (4810-010, IWAKI) to 5×10^5 cells/2.5 mL/well and cultured overnight. On the next day, human FPRL1 and Gα15 expression vectors were introduced using Lipofectamine 2000 transfection reagent (11668-019, Life technologies). First, the human FPRL1 and Gal5 expression vectors were diluted with Opti-MEM I Reduced Serum Medium (31985-070, GIBCO) to 2 μg/250 μL/well and Lipofectamine 2000 transfection reagent was diluted with Opti-MEM I Reduced Serum Medium to be 4 μL/250 μL/well. The vectors and reagent were softly diffused, and incubated at room temperature for 5 minutes. The vector solution was mixed with Lipofectamine 2000 transfection reagent in equal amounts. In order to form a complex of the vectors and Lipofectamine 2000 transfection reagent, the mixture was incubated at room temperature for 20 minutes, and added at 500 μL/well to the medium of inoculated cells. The treated cells were cultured for 24 hours, inoculated in Poly-D-Lysine coated 96-well plate (356640, BD Biosciences) at a cell density of 7×10^4 cells/100 μL/well, and cultured for another 24 hours. The resultant cells were used in a measurement test of calcium mobilization in the cells.
(3) Evaluation of Agonist Activity on Human FPRL1 (Test of Calcium Mobilization in Cell)
An appropriate amount of each test compound was first weighed, and dissolved to 10^−2 M by addition of dimethyl sulfoxide (DMSO). […] The plate dispensed with compound solutions was set in Flexstation (Molecular Devices, LLC.) until measurement.
Subsequently, 10 mL of assay buffer and 100 μL of probenecid solution (dissolved by addition of 1 mL of assay buffer to a 250 mM stock) were sufficiently mixed and dissolved in Fluo-4 NW dye mix. The medium of cells inoculated on the previous day was removed, the dissolved Fluo-4 NW dye mix was added in an amount of 90 μL/well, and a reaction was caused in the dark at 37° C. for 45 minutes. The cells after the reaction and chips for addition of the compound were set in Flexstation, and variation in fluorescence intensity over time after addition of the compound was measured [amount of added compound=10 μL (final concentration: 10^−5 M to 10^−12 M), excitation wavelength: 485 nm, measured wavelength: 525 nm, 1.5 sec×54 read]. A value was calculated by subtracting a base value during addition of DMSO from the maximum value of relative fluorescence unit, and analyzed. All the measurement data were analyzed with Prism 4 that was a data analysis tool.

EC50 (human FPRL1) [pM] | Structure (SMILES) | Suppression Ratio ([1]; dose 3 mg/kg) [%] | Suppression Ratio ([1]; dose 1 mg/kg) [%]
540 | COc1ccc([C@@H]2COCC2NC(=O)Nc2ccc(Cl)cc2)cc1 (single isomer, unassigned; (+)) [Example 2-1 Isomer A, (+)-cis-1-(4-Chlorophenyl)-3-[4-(4-methoxyphenyl)tetrahydrofuran-3-yl]urea] | 82 | –
620 | COc1ccc([C@@H]2COCC2NC(=O)Nc2ccc(F)cc2)cc1 (single isomer, unassigned; (+)) [Example 3-1 Isomer A, (+)-cis-1-(4-Fluorophenyl)-3-[4-(4-methoxyphenyl)tetrahydrofuran-3-yl]urea] | 80 | –
20 | COc1cc(F)c([C@@H]2CN3CCON=C3[C@H]2NC(=O)Nc2ccc(F)cc2)c(F)c1 (relative stereo) [Example 7-7, 1-[(7R*,8S*)-7-(2,6-difluoro-4-methoxyphenyl)-4,6,7,8-tetrahydro-3H-pyrrolo[2,1-c][1,2,4]-oxadiazin-8-yl]-3-(4-fluorophenyl)urea] | – | 97
